Laboratory results published in PMC6528642, “Myo‐inositol‐1‐phosphate synthase (Ino‐1) functions as a protection mechanism in Corynebacterium glutamicum under oxidative stress” (MicrobiologyOpen, 2018).

Target: T1, Ino-1 (Corynebacterium glutamicum, UniProt Q8NLE6)
T1 construct: His6-tagged (pXMJ19-His6-ino-1), homologous expression in C. glutamicum delta-ino-1, Ni-NTA
Assay: intrinsic protein fluorescence quenching (Ex […] nm, Em […] nm)
Format: binding
Conditions: read-out: apparent K D

T1 sequence (Q8NLE6 whole entry): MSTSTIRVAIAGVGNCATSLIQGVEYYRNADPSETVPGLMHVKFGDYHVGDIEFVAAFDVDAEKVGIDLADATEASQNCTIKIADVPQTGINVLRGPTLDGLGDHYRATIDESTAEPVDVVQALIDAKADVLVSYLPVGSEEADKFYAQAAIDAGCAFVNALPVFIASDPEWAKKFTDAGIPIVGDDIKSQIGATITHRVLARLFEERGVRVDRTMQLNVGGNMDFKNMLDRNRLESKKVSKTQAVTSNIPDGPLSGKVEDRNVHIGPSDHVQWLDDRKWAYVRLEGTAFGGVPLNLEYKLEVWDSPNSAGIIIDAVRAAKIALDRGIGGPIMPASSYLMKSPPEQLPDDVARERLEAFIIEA

- Kd: 4.7 ± 0.8 µM
SMILES: NC(=O)c1ccc[n+]([C@@H]2O[C@H](COP(=O)(O)OP(=O)(O)OC[C@H]3O[C@@H](n4cnc5c(N)ncnc54)[C@H](O)[C@@H]3O)[C@@H](O)[C@H]2O)c1 [NAD^+]
